Test results reported in patent publication US6465483B1, “Annelated dihydropyridines and the use thereof for preparing pharmaceutical preparations” (Boehringer Ingelheim GmbH, priority 1993, dated 2002).

What was measured:
[1] = tested on: unselective cation channels (UCC); assay: Inhibition of Ca2+ entry through unselective cation channels after Thapsigargin stimulation, fura-2-charged RBL-hm 1 cells; assay type: cell-based, rat; conditions: Table 5, 0.1 μM Thapsigargin, test substance 10^−5 M
Method: For screening purposes, fura-2-charged adhesive RBL-hm 1 cells are stimulated with 0.1 μM Thapsigargin in a Ca^2+-free incubation medium. After 4 minutes, extracellular Ca^2+ is restored to a concentration of 1.5 mM and, using the fura-2-fluorescence, the excessive increase in the cytoplasmic Ca^2+-concentration caused by a massive transmembranal Ca^2+-entry through unselective cation channels is recorded.
The kinetics of the cytoplasmic Ca^2+-concentration is recorded continuously as a concentration/time curve after the cell activation stimulated by Thapsigargin (0.1 μM). The curves of two activated cell cultures are compared in the presence and absence of 10 μM test substance. The area under these curves (area under the curve=AUC) is integrated and recorded as a measurement of cell activation. The inhibitory potency of the UCC-blockers tested is determined using the following equation: [formula]
AUCinh area under the curve recorded in the presence of the stimulant plus 10 μM inhibitory test substance.
AUC control=area under the curve which is recorded only after the addition of the stimulant.
The uniform concentration of the test substances is 10^−5 mol or 10^−6 mol)

[2] = tested on: RBL-2H3-cells; assay: Antigen (DNP-BSA)-induced activation of sensitised RBL-2H3-cells, fluorometric cytoplasmic calcium measurement; assay type: cell-based, rat; conditions: 10 μM
Method: Individual RBL-2H3-cells (a tumour cell line related to the mast cells) adhering to glass slides are used.
The cultivation and attachment of the RBL-2H3-cells are carried out by the method described by HIDE and BEAVEN (1991). In order to sensitise the adhesive RBL-2H3-cells the cells are incubated for 2 hours at ambient temperature with a 1:2000 diluted commercial gammaglobulin E-solution against a dinitrophenol-bovine serum albumin complex (DNP-BSA-antigen). The cells are then washed. By the addition of 0.1 ml of DNP-BSA-solution (10 μg/ml) there is a massive immunological cell activation which is mediated by a cytoplasmic Ca^2+-overload. The fluorometric calcium measurement in the cytoplasm of individual adhering RBL-2H3-cells is carried out analogously to the method described by KUDO and OGURA (1986) for neuronal cells, which is also explained hereinbefore in this specification.
The comparison used in these investigations is (10 μM) chromoglycate which brings about an approximately 50% inhibition of the antigen-induced cell activation.

SMILES | % H (10^−5 M), percentage inhibition of UCC after Thapsigargin stimulation [1] [%] | inhibition of the antigen-induced cell activation [2]
COc1cc2c(cc1OC)C(C(C(=O)N(Cc1ccccc1)Cc1ccccc1)c1ccsc1)=NCC2 (racemic) [(R,S)-(3,4-Dihydro-6,7-dimethoxyisoquinolin-1-yl)-2-(3-thienyl)-N,N-dibenzyl-acetamide] | 90.9 | –
O=C(O)c1cc(=O)c2c(OCC(O)COc3cccc4oc(C(=O)O)cc(=O)c34)cccc2o1 [chromoglycate] | – | approximately 50%
